Measurements as given in the supplement of paper PMC10307832.

Experiments:
Experiment in all cases: relative viability (nuclei count vs DMSO), 5 days (fraction); higher = more cells survive
CAL-12T = test system: CAL-12T
In short: (§1)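 The day after seeding in 1536-well plates, lung cancer cell lines were treated by pin tool with a single drug, or with a fixed anchor-drug dose together with five library-drug doses (not always all listed) in √10 steps. After 5 days, a combined fix-and-stain solution (final 0.05% Triton X-100, 1% formaldehyde, 1 ug/ml Hoechst) was added. Nuclei counted on 4× images gave relative viability as treated counts over vehicle counts, reported as the median of duplicate plates.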

NCI-H1666 = test system: NCI-H1666
In short: as §1

COR-L23 = test system: COR-L23
In short: as §1

NCI-H1437 = test system: NCI-H1437
In short: as §1

NCI-H460 = test system: NCI-H460
In short: as §1

PC-14 = test system: PC-14
In short: as §1

NCI-H1755 = test system: NCI-H1755
In short: as §1

NCI-H1792 = test system: NCI-H1792
In short: as §1

NCI-H1651 = test system: NCI-H1651
In short: as §1

NCI-H2170 = test system: NCI-H2170
In short: as §1

NCI-H520 = test system: NCI-H520
In short: as §1

LXF-289 = test system: LXF-289
In short: as §1

SK-MES-1 = test system: SK-MES-1
In short: as §1

HCC-44 = test system: HCC-44
In short: as §1

NCI-H1563 = test system: NCI-H1563
In short: as §1

BEN = test system: BEN
In short: as §1

NCI-H1650 = test system: NCI-H1650
In short: as §1

LU99A = test system: LU99A
In short: as §1

NCI-H1355 = test system: NCI-H1355
In short: as §1

NCI-H2087 = test system: NCI-H2087
In short: as §1

NCI-H1993 = test system: NCI-H1993
In short: as §1

NCI-H2085 = test system: NCI-H2085
In short: as §1

Which relative viability (CAL-12T; first compound 0.001 µM) does the source give for Cc1cn(-c2cc(NC(=O)c3ccc(C)c(Nc4nccc(-c5cccnc5)n4)c3)cc(C(F)(F)F)c2)cn1 [Nilotinib] + CCNC(=O)c1noc(-c2cc(C(C)C)c(O)cc2O)c1-c1ccc(CN2CCOCC2)cc1 [Luminespib] (partner 0.01 µM) here?
Its relative viability is 0.66.

What about the relative viability (CAL-12T; first compound 0.003162 µM) of the same compound?
Its relative viability is 0.335.

What about the relative viability (CAL-12T; first compound 0.01 µM) of the same compound?
Its relative viability is 0.665.

And the relative viability (CAL-12T; first compound 0.03162 µM)?
Its relative viability is 0.222.

What about the relative viability (CAL-12T; first compound 0.1 µM) of the same compound?
The relative viability was 0.212.

What about the relative viability (NCI-H1666; first compound 0.001 µM) of the same compound?
The relative viability was 1.02.

And the relative viability (NCI-H1666; first compound 0.003162 µM)?
The relative viability was 1.01.

What about the relative viability (NCI-H1666; first compound 0.01 µM) of the same compound?
The relative viability was 1.1.

And the relative viability (NCI-H1666; first compound 0.03162 µM)?
The relative viability was 0.999.

What about the relative viability (NCI-H1666; first compound 0.1 µM) of the same compound?
The relative viability was 1.17.

What about the relative viability (COR-L23; first compound 0.001 µM) of the same compound?
The relative viability was 0.478.

What about the relative viability (COR-L23; first compound 0.003162 µM) of the same compound?
Its relative viability is 0.557.

What about the relative viability (COR-L23; first compound 0.01 µM) of the same compound?
Its relative viability is 0.883.

What about the relative viability (COR-L23; first compound 0.03162 µM) of the same compound?
Its relative viability is 0.507.

What about the relative viability (COR-L23; first compound 0.1 µM) of the same compound?
The relative viability was 0.535.

What about the relative viability (NCI-H1437; first compound 0.001 µM) of the same compound?
The relative viability was 1.11.

And the relative viability (NCI-H1437; first compound 0.003162 µM)?
Its relative viability is 1.3.

What about the relative viability (NCI-H1437; first compound 0.01 µM) of the same compound?
Its relative viability is 1.26.

What about the relative viability (NCI-H1437; first compound 0.03162 µM) of the same compound?
The relative viability was 0.885.

What about the relative viability (NCI-H1437; first compound 0.1 µM) of the same compound?
Its relative viability is 0.934.

And the relative viability (NCI-H460; first compound 0.001 µM)?
Its relative viability is 0.0351.

And the relative viability (NCI-H460; first compound 0.003162 µM)?
The relative viability was 0.0386.

And the relative viability (NCI-H460; first compound 0.01 µM)?
Its relative viability is 0.0279.

What about the relative viability (NCI-H460; first compound 0.03162 µM) of the same compound?
Its relative viability is 0.0273.

And the relative viability (NCI-H460; first compound 0.1 µM)?
Its relative viability is 0.0271.

And the relative viability (PC-14; first compound 0.001 µM)?
Its relative viability is 0.168.

What about the relative viability (PC-14; first compound 0.003162 µM) of the same compound?
The relative viability was 0.152.

What about the relative viability (PC-14; first compound 0.01 µM) of the same compound?
The relative viability was 0.138.

And the relative viability (PC-14; first compound 0.03162 µM)?
The relative viability was 0.123.

What about the relative viability (PC-14; first compound 0.1 µM) of the same compound?
The relative viability was 0.153.

And the relative viability (NCI-H1755; first compound 0.001 µM)?
Its relative viability is 0.651.

What about the relative viability (NCI-H1755; first compound 0.003162 µM) of the same compound?
The relative viability was 0.418.

And the relative viability (NCI-H1755; first compound 0.01 µM)?
Its relative viability is 0.396.

And the relative viability (NCI-H1755; first compound 0.03162 µM)?
Its relative viability is 0.632.

And the relative viability (NCI-H1755; first compound 0.1 µM)?
The relative viability was 0.376.

And the relative viability (NCI-H1792; first compound 0.003162 µM)?
The relative viability was 0.417.

What about the relative viability (NCI-H1792; first compound 0.01 µM) of the same compound?
The relative viability was 0.545.

What about the relative viability (NCI-H1792; first compound 0.1 µM) of the same compound?
The relative viability was 0.266.

And the relative viability (NCI-H1651; first compound 0.001 µM)?
The relative viability was 0.78.

What about the relative viability (NCI-H1651; first compound 0.003162 µM) of the same compound?
The relative viability was 0.912.

And the relative viability (NCI-H1651; first compound 0.01 µM)?
The relative viability was 0.902.

And the relative viability (NCI-H1651; first compound 0.03162 µM)?
The relative viability was 0.711.

What about the relative viability (NCI-H1651; first compound 0.1 µM) of the same compound?
Its relative viability is 0.753.

And the relative viability (NCI-H2170; first compound 0.001 µM)?
The relative viability was 0.591.

What about the relative viability (NCI-H2170; first compound 0.003162 µM) of the same compound?
Its relative viability is 1.11.

And the relative viability (NCI-H2170; first compound 0.01 µM)?
The relative viability was 1.5.

And the relative viability (NCI-H2170; first compound 0.03162 µM)?
Its relative viability is 0.328.

And the relative viability (NCI-H2170; first compound 0.1 µM)?
Its relative viability is 0.877.

And the relative viability (NCI-H520; first compound 0.001 µM)?
The relative viability was 0.308.

And the relative viability (NCI-H520; first compound 0.01 µM)?
The relative viability was 0.244.

What about the relative viability (NCI-H520; first compound 0.03162 µM) of the same compound?
The relative viability was 0.223.

And the relative viability (NCI-H520; first compound 0.1 µM)?
The relative viability was 0.216.

What about the relative viability (LXF-289; first compound 0.001 µM) of the same compound?
Its relative viability is 0.655.

And the relative viability (LXF-289; first compound 0.003162 µM)?
The relative viability was 1.02.

And the relative viability (LXF-289; first compound 0.01 µM)?
The relative viability was 0.988.

What about the relative viability (LXF-289; first compound 0.03162 µM) of the same compound?
The relative viability was 0.573.

What about the relative viability (LXF-289; first compound 0.1 µM) of the same compound?
Its relative viability is 0.649.

What about the relative viability (SK-MES-1; first compound 0.001 µM) of the same compound?
The relative viability was 0.784.

And the relative viability (SK-MES-1; first compound 0.003162 µM)?
The relative viability was 0.985.

What about the relative viability (SK-MES-1; first compound 0.01 µM) of the same compound?
Its relative viability is 0.927.

And the relative viability (SK-MES-1; first compound 0.03162 µM)?
The relative viability was 0.672.

And the relative viability (SK-MES-1; first compound 0.1 µM)?
The relative viability was 0.626.

What about the relative viability (HCC-44; first compound 0.001 µM) of the same compound?
The relative viability was 0.845.

What about the relative viability (HCC-44; first compound 0.003162 µM) of the same compound?
The relative viability was 1.12.

What about the relative viability (HCC-44; first compound 0.01 µM) of the same compound?
The relative viability was 1.14.

What about the relative viability (HCC-44; first compound 0.03162 µM) of the same compound?
Its relative viability is 0.943.

What about the relative viability (HCC-44; first compound 0.1 µM) of the same compound?
Its relative viability is 0.833.

And the relative viability (NCI-H1563; first compound 0.001 µM)?
The relative viability was 0.546.

What about the relative viability (NCI-H1563; first compound 0.003162 µM) of the same compound?
Its relative viability is 0.475.

What about the relative viability (NCI-H1563; first compound 0.01 µM) of the same compound?
Its relative viability is 0.534.

What about the relative viability (NCI-H1563; first compound 0.03162 µM) of the same compound?
The relative viability was 0.51.

And the relative viability (NCI-H1563; first compound 0.1 µM)?
The relative viability was 0.441.

What about the relative viability (BEN; first compound 0.001 µM) of the same compound?
Its relative viability is 0.563.

What about the relative viability (BEN; first compound 0.003162 µM) of the same compound?
The relative viability was 0.275.

And the relative viability (BEN; first compound 0.01 µM)?
The relative viability was 0.378.

And the relative viability (BEN; first compound 0.03162 µM)?
The relative viability was 0.277.

And the relative viability (BEN; first compound 0.1 µM)?
The relative viability was 0.256.

What about the relative viability (NCI-H1650; first compound 0.001 µM) of the same compound?
Its relative viability is 0.208.

And the relative viability (NCI-H1650; first compound 0.003162 µM)?
Its relative viability is 0.203.

And the relative viability (NCI-H1650; first compound 0.01 µM)?
The relative viability was 0.197.

And the relative viability (NCI-H1650; first compound 0.03162 µM)?
Its relative viability is 0.221.

What about the relative viability (NCI-H1650; first compound 0.1 µM) of the same compound?
The relative viability was 0.192.

What about the relative viability (LU99A; first compound 0.001 µM) of the same compound?
The relative viability was 0.227.

What about the relative viability (LU99A; first compound 0.01 µM) of the same compound?
The relative viability was 0.274.

And the relative viability (LU99A; first compound 0.03162 µM)?
Its relative viability is 0.219.

What about the relative viability (LU99A; first compound 0.1 µM) of the same compound?
The relative viability was 0.213.

And the relative viability (NCI-H1355; first compound 0.001 µM)?
Its relative viability is 0.542.

And the relative viability (NCI-H1355; first compound 0.003162 µM)?
Its relative viability is 0.7.

And the relative viability (NCI-H1355; first compound 0.01 µM)?
Its relative viability is 0.644.

What about the relative viability (NCI-H1355; first compound 0.03162 µM) of the same compound?
Its relative viability is 0.549.

What about the relative viability (NCI-H1355; first compound 0.1 µM) of the same compound?
Its relative viability is 0.654.

What about the relative viability (NCI-H2087; first compound 0.001 µM) of the same compound?
The relative viability was 0.162.

And the relative viability (NCI-H2087; first compound 0.003162 µM)?
The relative viability was 0.219.

And the relative viability (NCI-H2087; first compound 0.01 µM)?
The relative viability was 0.202.

What about the relative viability (NCI-H2087; first compound 0.03162 µM) of the same compound?
The relative viability was 0.172.

What about the relative viability (NCI-H2087; first compound 0.1 µM) of the same compound?
Its relative viability is 0.164.

And the relative viability (NCI-H1993; first compound 0.001 µM)?
Its relative viability is 0.928.

What about the relative viability (NCI-H1993; first compound 0.003162 µM) of the same compound?
Its relative viability is 0.456.

What about the relative viability (NCI-H1993; first compound 0.01 µM) of the same compound?
The relative viability was 0.912.

And the relative viability (NCI-H1993; first compound 0.03162 µM)?
The relative viability was 0.773.

What about the relative viability (NCI-H1993; first compound 0.1 µM) of the same compound?
The relative viability was 0.765.

What about the relative viability (NCI-H2085; first compound 0.001 µM) of the same compound?
Its relative viability is 0.392.

What about the relative viability (NCI-H2085; first compound 0.003162 µM) of the same compound?
The relative viability was 0.46.

What about the relative viability (NCI-H2085; first compound 0.01 µM) of the same compound?
The relative viability was 0.427.

And the relative viability (NCI-H2085; first compound 0.03162 µM)?
Its relative viability is 0.375.

And the relative viability (NCI-H2085; first compound 0.1 µM)?
The relative viability was 0.382.
